From ChEMBL document CHEMBL4219252, “Synthesis, antimycobacterial activity and influence on mycobacterial InhA and PknB of 12-membered cyclodepsipeptides” (Bioorg Med Chem, 2018)
In brackets after ≈: the same amount, converted by molar mass.

Key:
Type in all cases: functional, variant bovis BCG
[1] = system: Mycobacterium tuberculosis; test: Antimycobacterial activity against Mycobacterium bovis BCG harboring pATB45::inhA after 48 hrs by resazurin microtiter assay
[2] = system: Mycobacterium tuberculosis; test: Ratio of MIC for Mycobacterium bovis BCG harboring pATB45::inhA to MIC for Mycobacterium bovis BCG harboring pATB45
[3] = system: Mycobacterium tuberculosis; test: Antimycobacterial activity against wild type Mycobacterium bovis BCG harboring pATB45 after 48 hrs by resazurin microtiter assay
[4] = Mycobacterium tuberculosis, variant bovis BCG, 48 h, read-out: MIC

## C[C@H]1OC(=O)CCC(Cc2ccccc2)NC(=O)[C@@H](NC(=O)c2ncccc2O)[C@@H](C)OC1=O (some centres not stated)
[1]; [4]
  MIC: 62.5 µM (≈ 29.3 µg/mL)
[2]
  Ratio: 1
[3]; [4]
  MIC: 62.5 µM (≈ 29.3 µg/mL)

## C[C@H]1OC(=O)COC(=O)CCC(Cc2ccccc2)NC(=O)[C@H]1NC(=O)OC(C)(C)C (stereo in doubt; form 1)
[1]
  MIC: 125 µM (≈ 54.3 µg/mL)
[2]
  Ratio: 2
[3]
  MIC: 62.5 µM (≈ 27.2 µg/mL)

## C[C@H]1OC(=O)COC(=O)CCC(Cc2ccccc2)NC(=O)[C@H]1NC(=O)OC(C)(C)C (stereo in doubt; form 2)
[1]
  MIC: 7.8 µM (≈ 3.39 µg/mL)
[2]
  Ratio: 1
[3]
  MIC: 7.8 µM (≈ 3.39 µg/mL)

## NNC(=O)c1ccncc1 [ISONIAZID]
[1]; [4]
  MIC: 12.5 µM (≈ 1.71 µg/mL)
[2]
  Ratio: 15.6
[3]; [4]
  MIC: 0.8 µM (≈ 0.11 µg/mL)
